Drawing on patent US11739098B2 (BRISTOL-MYERS SQUIBB COMPANY, priority 2017, dated 2023), this text covers IC50 for 13 molecules.

Format in all cases: cell-based
Assay [1] concerns the target T1, human TLR7 (Homo sapiens, UniProt Q9NYK1).
T1 construct: host or cells: HEK-Blue cells (HEK293-derived reporter line)
T1 sequence (Q9NYK1 27-1049): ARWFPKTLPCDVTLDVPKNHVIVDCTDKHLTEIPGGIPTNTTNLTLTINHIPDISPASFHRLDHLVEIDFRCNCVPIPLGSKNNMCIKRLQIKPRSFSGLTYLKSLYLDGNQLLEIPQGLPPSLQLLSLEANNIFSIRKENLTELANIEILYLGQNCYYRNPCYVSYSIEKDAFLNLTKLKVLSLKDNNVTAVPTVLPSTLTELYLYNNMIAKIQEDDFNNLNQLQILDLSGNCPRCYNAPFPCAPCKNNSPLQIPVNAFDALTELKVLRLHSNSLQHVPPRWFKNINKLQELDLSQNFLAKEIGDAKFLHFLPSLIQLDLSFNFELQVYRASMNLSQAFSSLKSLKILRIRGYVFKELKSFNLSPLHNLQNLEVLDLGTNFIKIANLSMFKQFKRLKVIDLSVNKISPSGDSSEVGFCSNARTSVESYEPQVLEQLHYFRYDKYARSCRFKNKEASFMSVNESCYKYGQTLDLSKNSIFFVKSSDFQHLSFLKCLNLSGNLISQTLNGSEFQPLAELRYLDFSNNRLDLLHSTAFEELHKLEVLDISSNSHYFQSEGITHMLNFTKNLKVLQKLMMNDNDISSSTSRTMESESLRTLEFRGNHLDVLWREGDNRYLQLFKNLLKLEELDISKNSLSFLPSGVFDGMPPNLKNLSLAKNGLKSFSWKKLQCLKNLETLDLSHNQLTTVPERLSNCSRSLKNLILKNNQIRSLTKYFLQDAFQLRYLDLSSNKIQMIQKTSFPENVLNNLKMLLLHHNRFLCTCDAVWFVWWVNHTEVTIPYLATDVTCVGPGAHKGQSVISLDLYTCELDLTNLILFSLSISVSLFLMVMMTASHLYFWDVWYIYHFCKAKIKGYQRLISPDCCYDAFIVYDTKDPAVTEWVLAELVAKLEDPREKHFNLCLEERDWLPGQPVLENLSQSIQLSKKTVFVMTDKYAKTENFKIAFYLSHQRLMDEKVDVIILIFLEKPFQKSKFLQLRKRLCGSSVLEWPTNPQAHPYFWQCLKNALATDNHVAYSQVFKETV
Briefly: TLR7 inhibition reporter assay (HEK-Blue cells, SEAP reporter, gardiquimod stimulation). The following applies: HEK-Blue cells overexpressing human TLR7, SEAP reporter, gardiquimod 7.5 μM. The gist of the method:
(§1)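 Agonists (final): TLR7 gardiquimod 7.5 μM; TLR8 R848 15.9 μM; TLR9 ODN2006 5 nM. HEK-Blue reporter cells, 30 min RT compound pre-incubation, 0.05 nM–50 μM dose range, 22 h at 37 °C, colorimetric SEAP detection medium. % inhibition relative to agonist+DMSO and known-inhibitor wells.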
A general note: Reporter assays use an easily measured gene product as a stand-in for the process of interest.

For assay [2], the target named is T2, human TLR8 (Homo sapiens, UniProt Q9NR97).
T2 construct: host or cells: HEK-Blue cells (HEK293-derived reporter line)
T2 sequence (Q9NR97 27-1041): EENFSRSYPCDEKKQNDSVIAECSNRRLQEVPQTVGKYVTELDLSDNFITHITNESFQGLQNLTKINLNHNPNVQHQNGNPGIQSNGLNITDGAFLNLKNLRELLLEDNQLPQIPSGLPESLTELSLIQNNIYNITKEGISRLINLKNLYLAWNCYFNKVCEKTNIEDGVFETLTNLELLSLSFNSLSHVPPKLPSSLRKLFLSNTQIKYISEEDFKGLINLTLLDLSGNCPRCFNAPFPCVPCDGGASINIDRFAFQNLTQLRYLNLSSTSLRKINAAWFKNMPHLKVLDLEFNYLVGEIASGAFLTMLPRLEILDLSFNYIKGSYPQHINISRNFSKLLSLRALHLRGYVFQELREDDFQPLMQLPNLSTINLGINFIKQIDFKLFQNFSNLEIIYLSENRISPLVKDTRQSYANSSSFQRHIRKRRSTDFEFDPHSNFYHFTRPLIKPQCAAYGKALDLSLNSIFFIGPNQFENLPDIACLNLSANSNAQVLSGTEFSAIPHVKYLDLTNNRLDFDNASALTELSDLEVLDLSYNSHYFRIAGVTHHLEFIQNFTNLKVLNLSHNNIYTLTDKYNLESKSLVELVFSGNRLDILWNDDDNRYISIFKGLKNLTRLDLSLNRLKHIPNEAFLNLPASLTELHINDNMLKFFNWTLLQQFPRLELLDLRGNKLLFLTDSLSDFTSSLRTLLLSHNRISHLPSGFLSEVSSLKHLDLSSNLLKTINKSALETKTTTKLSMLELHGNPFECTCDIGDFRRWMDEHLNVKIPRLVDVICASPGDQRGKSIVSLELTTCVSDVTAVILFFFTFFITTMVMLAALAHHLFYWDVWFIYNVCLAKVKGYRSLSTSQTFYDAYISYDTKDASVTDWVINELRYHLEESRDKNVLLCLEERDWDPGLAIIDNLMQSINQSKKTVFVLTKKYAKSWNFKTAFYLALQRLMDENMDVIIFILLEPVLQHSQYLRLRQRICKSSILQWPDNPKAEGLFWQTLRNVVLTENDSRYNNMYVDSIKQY
Description: TLR8 inhibition reporter assay (HEK-Blue cells, SEAP reporter, R848 stimulation). The following applies: HEK-Blue cells overexpressing human TLR8, SEAP reporter, R848 15.9 μM. The gist of the method: as §1

Assay [3] deals with T3, human TLR9 (Homo sapiens, UniProt Q9NR96).
T3 construct: host or cells: HEK-Blue cells (HEK293-derived reporter line)
T3 sequence (Q9NR96 26-1032): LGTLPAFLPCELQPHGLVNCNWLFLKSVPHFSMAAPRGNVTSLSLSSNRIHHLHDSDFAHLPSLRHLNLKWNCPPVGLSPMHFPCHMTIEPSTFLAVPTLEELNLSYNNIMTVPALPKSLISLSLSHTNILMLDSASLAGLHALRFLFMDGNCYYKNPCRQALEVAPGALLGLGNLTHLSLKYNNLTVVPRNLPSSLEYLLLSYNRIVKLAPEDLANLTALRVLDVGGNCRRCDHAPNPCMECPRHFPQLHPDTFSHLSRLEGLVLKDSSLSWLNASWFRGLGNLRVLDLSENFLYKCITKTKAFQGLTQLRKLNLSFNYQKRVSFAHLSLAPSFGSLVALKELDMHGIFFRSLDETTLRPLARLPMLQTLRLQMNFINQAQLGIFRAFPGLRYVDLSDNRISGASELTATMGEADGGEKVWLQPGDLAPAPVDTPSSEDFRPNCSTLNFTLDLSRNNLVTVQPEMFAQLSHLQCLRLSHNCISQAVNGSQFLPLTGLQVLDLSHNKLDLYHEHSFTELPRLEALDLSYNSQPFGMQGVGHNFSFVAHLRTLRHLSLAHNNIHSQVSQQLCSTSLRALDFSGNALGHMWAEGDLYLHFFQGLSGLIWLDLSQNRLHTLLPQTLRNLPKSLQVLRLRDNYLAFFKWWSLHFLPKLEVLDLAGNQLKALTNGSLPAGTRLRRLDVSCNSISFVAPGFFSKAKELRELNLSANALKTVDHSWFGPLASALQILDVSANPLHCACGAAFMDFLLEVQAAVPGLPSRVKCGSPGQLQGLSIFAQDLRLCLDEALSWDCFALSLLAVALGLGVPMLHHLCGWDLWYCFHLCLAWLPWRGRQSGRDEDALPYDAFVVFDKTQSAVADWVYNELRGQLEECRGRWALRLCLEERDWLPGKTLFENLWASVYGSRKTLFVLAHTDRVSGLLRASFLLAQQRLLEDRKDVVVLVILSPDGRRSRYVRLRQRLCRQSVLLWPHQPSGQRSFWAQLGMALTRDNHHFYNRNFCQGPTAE
Briefly: TLR9 inhibition reporter assay (HEK-Blue cells, SEAP reporter, ODN2006 stimulation). The settings on record: HEK-Blue cells overexpressing human TLR9, SEAP reporter, ODN2006 5 nM. The gist of the method: as §1

Bounds are passed on as bounds.

For the molecule `Cc1cc(-c2[nH]c3ccc(C4CCN(C(=O)CN(C)C)CC4)cc3c2C(C)C)cn2cc(C(=O)N(C)CCO)nc12` [Example 494, 6-(5-(1-(dimethylglycyl)piperidin-4-yl)-3-isopropyl-1H-indol-2-yl)-N-(2-hydroxyethyl)-N,8-dimethylimidazo[1,2-a]pyridine-2-carboxamide], the IC50 in assay [1] was < 100 nM; in assay [2] it was < 100 nM; in assay [3], 1000 to 50000 nM.

For the molecule `CC(C)c1c(-c2ccc3nccn3c2)[nH]c2ccc(C3CCN(CC(=O)N(C)C)CC3)cc12` [Example 444, 2-(4-(2-(imidazo[1,2-a]pyridin-6-yl)-3-isopropyl-1H-indol-5-yl)piperidin-1-yl)-N,N-dimethylacetamide], the 50% inhibitory concentration (IC50) in assay [1] was < 100 nM; in assay [2], < 100 nM; in assay [3], 100 to 1000 nM.

With `CCc1c(-c2ccn3cnnc3c2)[nH]c2ccc(C3CCNCC3)cc12` [Example 204, 7-(3-ethyl-5-(piperidin-4-yl)-1H-indol-2-yl)-[1,2,4]triazolo[4,3-a]pyridine], the half-maximal inhibitory concentration (IC50) in assay [1], in assay [2] and in assay [3] was 100 to 1000 nM each time.

In the case of `CNC(=O)CN1CCC(c2ccc3[nH]c(-c4ccnc5[nH]ncc45)c(C(C)C)c3c2)CC1` [Example 276, 2-(4-(3-isopropyl-2-(1H-pyrazolo[3,4-b]pyridin-4-yl)-1H-indol-5-yl)piperidin-1-yl)-N-methylacetamide], the values for the IC50 in assay [1], in assay [2] and in assay [3] were < 100 nM, < 100 nM and 1000 to 50000 nM, respectively.

With `CC(C)c1c(-c2cn(C)c3ncccc23)[nH]c2ccc(C3CCN(Cc4cnn[nH]4)CC3)cc12` [Example 877, 3-(5-(1-((1H-1,2,3-triazol-5-yl)methyl)piperidin-4-yl)-3-isopropyl-1H-indol-2-yl)-1-methyl-1H-pyrrolo[2,3-b]pyridine], the IC50 in assay [1] was < 100 nM; in assay [2], < 100 nM; in assay [3], 1000 to 50000 nM.

`CCc1c(-c2ncnc3[nH]ccc23)[nH]c2ccc(C3CCNCC3)cc12` [Example 206, 4-(3-ethyl-5-(piperidin-4-yl)-1H-indol-2-yl)-7H-pyrrolo[2,3-d] pyrimidine]: the IC50 in assay [1] is 100 to 1000 nM; in assay [2] it was < 100 nM; in assay [3] it was 1000 to 50000 nM.

In the case of `Cc1cc(-c2[nH]c3ccc(C4CCNCC4)cc3c2C(C)C)cn2ccnc12` [Example 112, 6-(3-isopropyl-5-(piperidin-4-yl)-1H-indol-2-yl)-8-methylimidazo[1,2-a]pyridine], the IC50 is < 100 nM in assay [1], < 100 nM in assay [2] and 100 to 1000 nM in assay [3].

Regarding `CC(C)c1c(-c2cc(Cl)cc3nccn23)[nH]c2ccc(C3CCNCC3)cc12` [Example 127, 7-chloro-5-(3-isopropyl-5-(piperidin-4-yl)-1H-indol-2-yl)imidazo[1,2-a]pyridine], the half-inhibitory concentration (IC50) is < 100 nM in assay [1], < 100 nM in assay [2] and 100 to 1000 nM in assay [3].

As to `CC(C)c1c(-c2ccnc3[nH]ncc23)[nH]c2ccc(C3CCN(C(=O)C4CCCNC4)CC3)cc12` (stereo not drawn) [Example 636, (4-(3-isopropyl-2-(1H-pyrazolo[3,4-b]pyridin-4-yl)-1H-indol-5-yl)piperidin-1-yl)(piperidin-3-yl)methanone], the IC50 in assay [1] was < 100 nM; in assay [2], < 100 nM; in assay [3] it was 100 to 1000 nM.

For `CC(C)c1c(-c2cccn3ncnc23)[nH]c2ccc(C3CCN(C(=O)CN(C)C)CC3)cc12` [Example 514, 1-(4-(2-([1,2,4]triazolo[1,5-a]pyridin-8-yl)-3-isopropyl-1H-indol-5-yl)piperidin-1-yl)-2-(dimethylamino)ethan-1-one], the half-inhibitory concentration (IC50) in assay [1] is 100 to 1000 nM; in assay [2] it was 100 to 1000 nM; in assay [3], 1000 to 50000 nM.

Consider `Cc1ccnc2c1c(-c1[nH]c3ccc(C4CCN(C5CCOCC5)CC4)cc3c1C(C)C)cn2C` [Example 689, 3-(3-isopropyl-5-(1-(tetrahydro-2H-pyran-4-yl)piperidin-4-yl)-1H-indol-2-yl)-1,4-dimethyl-1H-pyrrolo[2,3-b]pyridine], for which the IC50 was < 100 nM in assay [1], < 100 nM in assay [2] and 1000 to 50000 nM in assay [3].

Regarding `Cc1cc(-c2[nH]c3ccc(C4CCNCC4)cc3c2C(C)C)cn2cc(C(=O)NCCO)nc12` [Example 267, N-(2-hydroxyethyl)-6-(3-isopropyl-5-(piperidin-4-yl)-1H-indol-2-yl)-8-methylimidazo[1,2-a]pyridine-2-carboxamide], the IC50 was < 100 nM in assay [1], < 100 nM in assay [2] and 1000 to 50000 nM in assay [3].

`Cc1nn2ccc(-c3[nH]c4ccc(C5CCN(CC(=O)N(C)C)CC5)cc4c3C(C)C)cc2c1F` [Example 399, 2-(4-(2-(3-fluoro-2-methylpyrazolo[1,5-a]pyridin-5-yl)-3-isopropyl-1H-indol-5-yl)piperidin-1-yl)-N,N-dimethylacetamide]: the IC50 was < 100 nM in assay [1], 1000 to 50000 nM in assay [2] and 1000 to 50000 nM in assay [3].

As usually defined, the IC50 is the concentration at which inhibition is half-maximal. A lower IC50 goes with inhibition by little substance.
